# Measurements from patent publication US6737383B1, “Herbicidal oxadiazolidines” (priority 1999, dated 2004).
# Experiments:
# pigweed = assay: Test B pre/postemergence pigweed; format: in vivo, Amaranthus retroflexus
# In short: (§1)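 Test chemicals in a non-phytotoxic solvent mixture with surfactant were sprayed preemergence onto planted seeds and postemergence onto plants 2 to 18 cm tall (1- to 4-leaf stage). After twelve to sixteen days in a greenhouse, injury was visually rated against untreated controls from 0 (no effect) to 10 (complete control).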
# smallflower flatsedge = assay: Test B flood test smallflower flatsedge; format: in vivo, Cyperus difformis
# In short: (§2)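 Each value is a visual injury score relative to controls, with 10 meaning complete control and 0 no effect. Evaluation took place twelve to sixteen days after the 2-leaf-stage plants were treated and kept in the greenhouse.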
# corn = assay: Test B pre/postemergence corn; format: in vivo, Zea mays
# In short: as §1
# crabgrass = assay: Test B pre/postemergence crabgrass; format: in vivo, Digitaria sanguinalis
# In short: as §1
# wheat = assay: Test B pre/postemergence wheat; format: in vivo, Triticum aestivum
# In short: as §1
# bedstraw = assay: Test B pre/postemergence bedstraw; format: in vivo, Galium aparine
# In short: as §1
# giant foxtail = assay: Test B pre/postemergence giant foxtail; format: in vivo, Setaria faberii
# In short: as §1
# wild oat = assay: Test B pre/postemergence wild oat; format: in vivo, Avena fatua
# In short: as §1
# rice = assay: Test B flood test rice; format: in vivo, Oryza sativa
# In short: as §2
# blackgrass = assay: Test B pre/postemergence blackgrass; format: in vivo, Alopecurus myosuroides
# In short: as §1
# purple nutsedge = assay: Test B pre/postemergence purple nutsedge; format: in vivo, Cyperus rotundus
# In short: as §1
# surinam grass = assay: Test B pre/postemergence surinam grass; format: in vivo, Brachiaria decumbens
# In short: as §1
# rape = assay: Test B pre/postemergence rape; format: in vivo, Brassica napus
# In short: as §1
# bamyardgrass = assay: Test B flood test barnyardgrass; format: in vivo, Echinochloa crus-galli
# In short: as §2
# morningglory = assay: Test B pre/postemergence morningglory; format: in vivo, Ipomoea hederacea
# In short: as §1
# sugar beet = assay: Test B pre/postemergence sugar beet; format: in vivo, Beta vulgaris
# In short: as §1
# [1] = Postemergence, Rate 62 g/ha, scale 0 to 10, 0 is no effect, 10 is complete control
# [2] = Postemergence, Rate 125 g/ha, scale of 0 to 10 where 0 is no effect and 10 is complete control
# [3] = Postemergence, Rate 250 g/ha, scale of 0 to 10, 0 is no effect, 10 is complete control
# [4] = Preemergence, Rate 62 g/ha, scale 0 to 10 (0 no effect, 10 complete control)
# [5] = Preemergence, Rate 125 g/ha, scale of 0 to 10 where 0 is no effect and 10 is complete control
# [6] = Preemergence, Rate 250 g/ha, scale 0 to 10 (0 no effect, 10 complete control)
# [7] = Preemergence, Rate 500 g/ha, scale of 0 to 10 where 0 is no effect and 10 is complete control
# [8] = Rate 62 g/ha, flood test species, Pre-emergence, visual evaluation after twelve to sixteen days
# [9] = Rate 125 g/ha, under heading Pre-emergence, flood test species, visual evaluation after twelve to sixteen days
# [10] = Rate 250 g/ha, Pre-emergence (flood test species), scale 0 to 10, 0 is no effect, 10 is complete control
# [11] = Rate 500 g/ha, Pre-emergence section of Table B, 0 to 10 scale (0 no effect, 10 complete control)
# [12] = Postemergence, Rate 500 g/ha, scale of 0 to 10 where 0 is no effect and 10 is complete control
compound,measurement,setting,value
CC(C)N(C(=O)n1oc(=O)n(CNC(=O)c2ccccc2)c1=O)c1ccccc1 [Compound 620],"Plant response rating, Redroot pigweed",pigweed; [1],0
same,"Plant response rating, Redroot pigweed",pigweed; [2],0
same,Redroot pigweed plant response rating,pigweed; [3],0
same,Redroot pigweed plant response rating,pigweed; [4],0
same,Redroot pigweed plant response rating,pigweed; [5],0
same,"Plant response rating, Redroot pigweed",pigweed; [6],0
same,"Plant response rating, Redroot pigweed",pigweed; [7],0
same,"Plant response rating, S. Flatsedge (0 to 10 scale, 0 is no effect, 10 is complete control)",smallflower flatsedge; [8],0
same,"S. Flatsedge plant response rating (0 to 10 scale, 0 is no effect, 10 is complete control)",smallflower flatsedge; [9],0
same,S. Flatsedge plant response rating,smallflower flatsedge; [10],0
same,S. Flatsedge plant response rating,smallflower flatsedge; [11],0
same,"Plant response rating, Corn",corn; [1],0
same,"Plant response rating, Corn",corn; [2],0
same,Corn plant response rating,corn; [3],0
same,"Plant response rating, Corn",corn; [12],0
same,Corn plant response rating,corn; [4],0
same,Corn plant response rating,corn; [5],0
same,"Plant response rating, Corn",corn; [6],0
same,"Plant response rating, Corn",corn; [7],0
same,"Plant response rating, Crabgrass",crabgrass; [1],1
same,"Plant response rating, Crabgrass",crabgrass; [2],2
same,"Plant response rating, Crabgrass",crabgrass; [12],3
same,Crabgrass plant response rating,crabgrass; [4],0
same,Crabgrass plant response rating,crabgrass; [5],0
same,"Plant response rating, Crabgrass",crabgrass; [6],0
same,"Plant response rating, Crabgrass",crabgrass; [7],6
same,"Plant response rating, Wheat",wheat; [1],0
same,"Plant response rating, Wheat",wheat; [2],0
same,Wheat plant response rating,wheat; [3],0
same,Wheat plant response rating,wheat; [4],0
same,Wheat plant response rating,wheat; [5],0
same,"Plant response rating, Wheat",wheat; [6],0
same,"Plant response rating, Wheat",wheat; [7],0
same,"Plant response rating, Bedstraw",bedstraw; [1],0
same,Bedstraw plant response rating,bedstraw; [4],0
same,Bedstraw plant response rating,bedstraw; [5],0
same,"Plant response rating, Bedstraw",bedstraw; [6],0
same,Bedstraw plant response rating,bedstraw; [7],0
same,"Plant response rating, Giant foxtail",giant foxtail; [1],0
same,"Plant response rating, Giant foxtail",giant foxtail; [2],0
same,Giant foxtail plant response rating,giant foxtail; [3],0
same,Giant foxtail plant response rating,giant foxtail; [4],0
same,Giant foxtail plant response rating,giant foxtail; [5],0
same,"Plant response rating, Giant foxtail",giant foxtail; [6],2
same,"Plant response rating, Giant foxtail",giant foxtail; [7],9
same,"Plant response rating, Wild oats",wild oat; [1],0
same,"Plant response rating, Wild oats",wild oat; [2],0
same,Wild oats plant response rating,wild oat; [3],0
same,Wild oats plant response rating,wild oat; [4],0
same,Wild oats plant response rating,wild oat; [5],0
same,"Plant response rating, Wild oats",wild oat; [6],0
same,"Plant response rating, Wild oats",wild oat; [7],0
same,"Plant response rating, Rice (0 to 10 scale, 0 is no effect, 10 is complete control)",rice; [8],0
same,"Rice plant response rating (0 to 10 scale, 0 is no effect, 10 is complete control)",rice; [9],0
same,Rice plant response rating,rice; [10],0
same,Rice plant response rating,rice; [11],0
same,"Plant response rating, Blackgrass",blackgrass; [1],0
same,"Plant response rating, Blackgrass",blackgrass; [2],0
same,Blackgrass plant response rating,blackgrass; [3],0
same,"Plant response rating, Blackgrass",blackgrass; [12],0
same,Blackgrass plant response rating,blackgrass; [4],0
same,Blackgrass plant response rating,blackgrass; [5],0
same,"Plant response rating, Blackgrass",blackgrass; [6],0
same,Blackgrass plant response rating,blackgrass; [7],0
same,"Plant response rating, Nutsedge",purple nutsedge; [1],0
same,"Plant response rating, Nutsedge",purple nutsedge; [2],0
same,Nutsedge plant response rating,purple nutsedge; [3],0
same,"Plant response rating, Nutsedge",purple nutsedge; [12],0
same,Nutsedge plant response rating,purple nutsedge; [4],0
same,Nutsedge plant response rating,purple nutsedge; [5],0
same,"Plant response rating, Nutsedge",purple nutsedge; [6],0
same,"Plant response rating, Nutsedge",purple nutsedge; [7],0
same,"Plant response rating, B. signalgrass",surinam grass; [1],0
same,"Plant response rating, B. signalgrass",surinam grass; [2],0
same,B. signalgrass plant response rating,surinam grass; [3],0
same,"Plant response rating, B. signalgrass",surinam grass; [12],0
same,B. signalgrass plant response rating,surinam grass; [4],0
same,B. signalgrass plant response rating,surinam grass; [5],0
same,"Plant response rating, B. signalgrass",surinam grass; [6],0
same,B. signalgrass plant response rating,surinam grass; [7],0
same,"Plant response rating, Rape",rape; [1],0
same,"Plant response rating, Rape",rape; [2],0
same,Rape plant response rating,rape; [3],0
same,"Plant response rating, Rape",rape; [12],0
same,Rape plant response rating,rape; [4],0
same,Rape plant response rating,rape; [5],0
same,"Plant response rating, Rape",rape; [6],0
same,"Plant response rating, Rape",rape; [7],0
same,"Plant response rating, Barnyardgrass (0 to 10 scale, 0 is no effect, 10 is complete control)",bamyardgrass; [8],0
same,"Barnyardgrass plant response rating (0 to 10 scale, 0 is no effect, 10 is complete control)",bamyardgrass; [9],0
same,Barnyardgrass plant response rating,bamyardgrass; [10],0
same,Barnyardgrass plant response rating,bamyardgrass; [11],0
same,"Plant response rating, Morningglory",morningglory; [1],2
same,Morningglory plant response rating,morningglory; [3],2
same,Morningglory plant response rating,morningglory; [4],0
same,Morningglory plant response rating,morningglory; [5],0
same,"Plant response rating, Morningglory",morningglory; [6],0
same,"Plant response rating, Morningglory",morningglory; [7],0
same,"Plant response rating, Sugarbeets",sugar beet; [1],0
same,"Plant response rating, Sugarbeets",sugar beet; [2],0
same,Sugarbeets plant response rating,sugar beet; [3],0
same,Sugarbeets plant response rating,sugar beet; [4],0
same,Sugarbeets plant response rating,sugar beet; [5],0
same,"Plant response rating, Sugarbeets",sugar beet; [6],0
same,"Plant response rating, Sugarbeets",sugar beet; [7],0
